Where two headings read alike, the source gives them in different places.
How the values were obtained:
[1] = tested on: HeLa, MDA-MB-231 and MDA-MB-468 cells; experiment: Energy metabolism pathway fluxes in intact cancer cells, pooled; assay type: cell-based, human; conditions: 24 h
Method: For glycolysis flux, cells (3 mg protein/mL) were incubated in KR buffer. Glycolysis was started by adding 5 mM external glucose (Sigma-Aldrich, MO, USA), and cellular samples were withdrawn after 0 and 10 min of incubation at 37°C under smooth orbital shaking. At the indicated times, the cells were rapidly mixed with 3% (w/v) ice-cold perchloric acid and centrifuged. The supernatants were neutralized with 1N KOH/100mM Tris. To rule out lactate production by glutaminolysis, cells were also incubated with 10 mM 2-deoxyglucose (Sigma-Aldrich, MO, USA). Lactate was determined by a standard method with lactate dehydrogenase (Roche, Mannheim, Germany) following the NADH formation at 340 nm.
For oxidative phosphorylation (OxPhos) flux, cells (2–5 mg protein/mL) were incubated at 37°C in air saturated KR medium plus 5 mM glucose. […] The net OxPhos rate was determined by using a Clark type electrode, as previously described and by using a high-resolution respirometer (Oroboros Instruments, Innsbruck, Austria) at 37°C. The contribution of OxPhos and glycolysis to the cellular ATP supply was determined, respectively, from the net OxPhos rate (oligomycin-sensitive respiration) multiplied by the ATP/O or P»/O2 ratio that corresponds to 2.5 or 5, and from the rate of lactate production, assuming a stoichiometry of 1 mol of ATP produced per 1 mol of lactate produced.

[2] = tested on: AS-30D hepatoma mitochondria; experiment: Oxygen consumption of isolated mitochondria; assay type: biochemical, rat; set-up: Net State 3 oxygen consumption rate: unit not given here; conditions: for Net State 3 oxygen consumption rate / Pseudo State 4 oxygen consumption rate / RC (State 3/ State 4) / State 3 oxygen consumption rate / State 4 oxygen consumption rate / Net State 3 (State 3 –pseudoState 4) oxygen consumption rate / RC (State 3/ State 4), respiratory control: Hepatoma mitochondria
Method: AS-30D hepatocarcinoma cells were propagated in the peritoneal cavity of 200–250 g weight female Wistar rats by intra-peritoneal inoculation of 3 mL of a cellular suspension containing approximately 4 × 10^8 cells/mL [36]. After 5–6 days, the rats were sacrificed by cervical dislocation and AS-30D ascites liquid was extracted from peritoneal area with a sterile syringe and collected in 50 mL-plastic tubes. The hepatoma cells were harvested by centrifugation and washed once by centrifugation in KR buffer. For mitochondria isolation from AS-30D hepatoma, cells were permeabilized with digitonin (Sigma Aldrich, CA, USA) at 10–40 μg/mg cellular protein concentration.
Respiration of AS-30D, liver and heart mitochondria (1 mg protein/mL) was assayed oxygraphically with a Clark-type O2 electrode in KME (120 mM KCl, 20 mM Mops, 1 mM EGTA) buffer pH 7.2 plus 2 mM KH2PO4, and different oxidizable substrates (as indicated in Results). For state 3 respiration, 600 nmol ADP were added. Mitochondria were incubated at 37°C with Aur and MA for 30–60 s before substrates were added. At the end of each respiratory measurement, dithionite was added to get the chemical zero oxygen signal.
Isolated mitochondria (1mg protein/mL) were incubated in KME buffer (120 mM KCl, 20 mM MOPS, 1 mM EGTA) pH 7.20 plus 2 mM KH2PO4 and the indicated oxidizable substrates. For state 3 (ADP-stimulated) respiration, 300-600 nmol ADP were added. RC, respiratory control; n=3. To get the maximal reduction of molecular oxygen (zero oxygen concentration), sodium dithionite (Na2O4S2) was added at the end of each measurement.

Cervix HeLa cells = experiment: Cell proliferation, 24 h drug exposure; assay type: cell-based, human; conditions: for effect on proliferation after shorter exposure: HeLa cells, 12 h exposure; for IC50: Cervix HeLa, 24 h, read-out: IC50 for proliferation cell rate; for TI ratio (3T3/ cancer cells): IC50 3T3 / IC50 HeLa; for TI ratio (H9C2/cancer cells): IC50 H9C2 / IC50 HeLa
Method: All metastatic (breast MDA-MB231, MDA-MB468, cervix HeLa, prostate PC3, colorectal HCT116, COLO205, glioblastoma U373), low-metastatic (breast MCF-7) cancer and non-cancer (fibroblast 3T3, cardiomyocytes H9C2) cell lines (American Type Culture Collection, Rockville, MD, USA) used in this study were cultured in Petri dishes in 20 mL of Dulbecco’s Modified Eagle’s Medium (DMEM, Sigma, MO, USA) supplemented with 10% fetal bovine serum (Biowest, Mexico) and 10,000 U penicillin/streptomycin (Sigma-Aldrich, MO, USA). […] For growth and maintenance, cells were incubated in 5% CO2/95% air at 37°C and kept until 80–90% of confluence was reached. Then, cells were harvested, washed by centrifugation and resuspended in Krebs-Ringer buffer (KR, 125 mM NaCl, 5 mM KCl, 25 mM Hepes, 1 mM MgCl2, 1 mM KH2PO4, 1.4 mM CaCl2, pH 7.4) for further use. For experimentation, cancer cells (3–5 x 10^6 cells) were cultured in DMEM (with 25 mM glucose) for 24 h in the absence of drugs. Afterwards, old-medium was replaced with fresh DMEM medium (with 25 mM glucose) in the absence (control, non-treated cells) or in the presence of logarithmic concentrations of Aur and MA for 24 h more, under the same culture conditions described above. Viability of cultured cells was determined by the trypan blue exclusion assay. The protein concentration was determined by the Lowry method.
For cell proliferation in the presence of drugs, cancer cells (20 x 10^3 cells/well) were grown in 96-well plates containing DMEM (Sigma-Aldrich) plus 10% bovine fetal serum for 24 h. […] The effect of these drugs on cell proliferation was determined in 96-well plates by the MTT (3-[4,5-dimethyl-thiazol-2-yl]-2,5-diphenyltetrazolium bromide) assay. The viability of cancer cells was > 95% after treatment with drugs.

[3] = 5 mM Glutamate/0.1 mM Malate, 5 μM MA
[4] = 5 mM Glutamate/0.1 mM Malate, 10 μM MA
[5] = 5 mM Glutamate/0.1 mM Malate, 10 μM Aur
[6] = 5 mM Glutamate/0.1 mM Malate, 25 μM Aur
[7] = 5 mM Glutamate/0.1 mM Malate, 50 μM Aur
[8] = 5 mM Glutamate/0.1 mM Malate, 100 μM Aur
[9] = Succinate 0.5 mM + Rotenone 2 µM, 10 µM Aur
[10] = Succinate 0.5 mM + Rotenone 2 µM, 25 µM Aur
[11] = Succinate 0.5 mM + Rotenone 2 µM, 50 µM Aur
[12] = Succinate 0.5 mM + Rotenone 2 µM, 100 µM Aur

Question: With Cc1ccc(Cl)c(Nc2ccccc2C(=O)O)c1Cl [MA, Meclofenamic acid] as the molecule, how does the “inhibition of OxPhos flux” value ([1]; MA 6–50 μM (Table 2)) read?
Answer: 31–66%

Question: What about the “Net State 3 oxygen consumption rate” value [2, 3] of the same molecule?
Answer: 26 ± 13

Question: What about the “Pseudo State 4 oxygen consumption rate” value [2, 3] of the same molecule?
Answer: 19 ± 4 (3)

Question: And the “RC (State 3/ State 4)” value [2, 3]?
Answer: 1 (3)

Question: And the “State 3 oxygen consumption rate” value [2, 3]?
Answer: 45 ± 10 (3)

Question: And the “State 4 oxygen consumption rate” value [2, 3]?
Answer: 45 ± 10 (3)

Question: What about the “Net State 3 oxygen consumption rate” value [2, 4] of the same molecule?
Answer: 0

Question: What about the “RC (State 3/ State 4)” value [2, 4] of the same molecule?
Answer: 1 (3)

Question: What about the “State 3 oxygen consumption rate” value [2, 4] of the same molecule?
Answer: 36 ± 7 (3)

Question: What about the “State 4 oxygen consumption rate” value [2, 4] of the same molecule?
Answer: 36 ± 7 (3)

Question: What about the “Pseudo State 4 oxygen consumption rate” value ([2]; 5 mM Glutamate/0.1 mM Malate, 10 μM MA, in nmol O2/min/mg protein) of the same molecule?
Answer: 45 ± 15 (3)

Question: What about the “effect on proliferation after shorter exposure” value (Cervix HeLa cells) of the same molecule?
Answer: < 15%

Question: What about the IC50 (Cervix HeLa cells; Homo sapiens) of the same molecule?
Answer: 6 ± 3 µM

Question: What about the “TI ratio (3T3/ cancer cells)” value (Cervix HeLa cells) of the same molecule?
Answer: 17

Question: What about the “TI ratio (H9C2/cancer cells)” value (Cervix HeLa cells) of the same molecule?
Answer: 17

Question: CC(=O)OC[C@H]1O[C@@H]([S-])[C@H](OC(C)=O)[C@@H](OC(C)=O)[C@@H]1OC(C)=O.CCP(CC)CC.[Au+] [Aur, [1-(thio-κS)-β-D-glucopyranose-2,3,4,6-tetraacetyl] (triethylphosphine)-gold] was tested. Which “inhibition of OxPhos and glycolysis fluxes” value ([1]; HeLa and MDA-MB-231 cells, Aur at IC50) did it give?
Answer: 48–75%

Question: And the “Net State 3 (State 3 –pseudoState 4) oxygen consumption rate” value [2, 5]?
Answer: 91.5 ± 8 nmol O2 min^-1 mg protein^-1

Question: And the “Pseudo State 4 oxygen consumption rate” value [2, 5]?
Answer: 33.5 ± 2 nmol O2 min^-1 mg protein^-1

Question: And the “RC (State 3/ State 4), respiratory control” value (shortened to “RC … respiratory control”) [2, 5]?
Answer: 2.8 ± 0.5

Question: What about the “State 3 oxygen consumption rate” value [2, 5] of the same molecule?
Answer: 125 ± 9 nmol O2 min^-1 mg protein^-1

Question: What about the “State 4 oxygen consumption rate” value [2, 5] of the same molecule?
Answer: 44 ± 6 nmol O2 min^-1 mg protein^-1

Question: What about the “Net State 3 (State 3 –pseudoState 4) oxygen consumption rate” value [2, 6] of the same molecule?
Answer: 78 ± 29 nmol O2 min^-1 mg protein^-1

Question: And the “Pseudo State 4 oxygen consumption rate” value [2, 6]?
Answer: 37 ± 5 nmol O2 min^-1 mg protein^-1

Question: And the “RC … respiratory control” value [2, 6]?
Answer: 2.6 ± 0.5

Question: And the “State 3 oxygen consumption rate” value [2, 6]?
Answer: 114± 31 nmol O2 min^-1 mg protein^-1

Question: And the “State 4 oxygen consumption rate” value [2, 6]?
Answer: 43 ± 3 nmol O2 min^-1 mg protein^-1

Question: And the “Net State 3 (State 3 –pseudoState 4) oxygen consumption rate” value [2, 7]?
Answer: 80 ± 39 nmol O2 min^-1 mg protein^-1

Question: And the “Pseudo State 4 oxygen consumption rate” value [2, 7]?
Answer: 52.5 ± 11 nmol O2 min^-1 mg protein^-1

Question: And the “RC … respiratory control” value [2, 7]?
Answer: 2.2 ± 0.5

Question: What about the “State 3 oxygen consumption rate” value [2, 7] of the same molecule?
Answer: 133± 46 nmol O2 min^-1 mg protein^-1

Question: What about the “State 4 oxygen consumption rate” value [2, 7] of the same molecule?
Answer: 74 ± 28 nmol O2 min^-1 mg protein^-1

Question: And the “Net State 3 (State 3 –pseudoState 4) oxygen consumption rate” value [2, 8]?
Answer: 68 ± 41 nmol O2 min^-1 mg protein^-1

Question: And the “Pseudo State 4 oxygen consumption rate” value [2, 8]?
Answer: 67 ± 21.5 nmol O2 min^-1 mg protein^-1

Question: And the “RC … respiratory control” value [2, 8]?
Answer: 1.5 ± 0.4

Question: And the “State 3 oxygen consumption rate” value [2, 8]?
Answer: 125 ± 61 nmol O2 min^-1 mg protein^-1

Question: What about the “State 4 oxygen consumption rate” value [2, 8] of the same molecule?
Answer: 79 ± 30 nmol O2 min^-1 mg protein^-1

Question: What about the “Net State 3 oxygen consumption rate” value [2, 9] of the same molecule?
Answer: 63 ± 13

Question: And the “Pseudo State 4 oxygen consumption rate” value [2, 9]?
Answer: 80 ± 10

Question: And the “RC (State 3/ State 4)” value [2, 9]?
Answer: 1.9 ± 0.5

Question: And the “State 3 oxygen consumption rate” value [2, 9]?
Answer: 143 ± 18

Question: What about the “State 4 oxygen consumption rate” value [2, 9] of the same molecule?
Answer: 73 ± 7.5

Question: What about the “Net State 3 oxygen consumption rate” value [2, 10] of the same molecule?
Answer: 56.5 ± 21

Question: And the “Pseudo State 4 oxygen consumption rate” value [2, 10]?
Answer: 90 ± 31

Question: And the “RC (State 3/ State 4)” value [2, 10]?
Answer: 1.7 ± 0.1

Question: What about the “State 3 oxygen consumption rate” value [2, 10] of the same molecule?
Answer: 147± 23

Question: What about the “State 4 oxygen consumption rate” value [2, 10] of the same molecule?
Answer: 84 ± 15

Question: And the “Net State 3 oxygen consumption rate” value [2, 11]?
Answer: 58.3 ± 63

Question: And the “Pseudo State 4 oxygen consumption rate” value [2, 11]?
Answer: 83 ± 23

Question: What about the “RC (State 3/ State 4)” value [2, 11] of the same molecule?
Answer: 1.9 ± 0.3

Question: What about the “State 3 oxygen consumption rate” value [2, 11] of the same molecule?
Answer: 141.5± 65

Question: And the “State 4 oxygen consumption rate” value [2, 11]?
Answer: 70 ± 28

Question: What about the “Net State 3 oxygen consumption rate” value [2, 12] of the same molecule?
Answer: 26 ± 46

Question: And the “Pseudo State 4 oxygen consumption rate” value [2, 12]?
Answer: 82 ± 34

Question: And the “RC (State 3/ State 4)” value [2, 12]?
Answer: 1.8 ± 0.4

Question: What about the “State 3 oxygen consumption rate” value [2, 12] of the same molecule?
Answer: 104 ± 24

Question: What about the “State 4 oxygen consumption rate” value [2, 12] of the same molecule?
Answer: 56.5 ± 7

Question: And the “increase of state 4 respiration rates (times)” value ([2]; hepatoma mitochondria, GM)?
Answer: 2.3–2.4 times

Question: What about the IC50 (Cervix HeLa cells) of the same molecule?
Answer: 1.7 ± 0.4 µM

Question: And the “effect on proliferation after shorter exposure” value (Cervix HeLa cells)?
Answer: < 15%

Question: What about the “TI ratio (3T3/ cancer cells)” value (Cervix HeLa cells) of the same molecule?
Answer: 25

Question: And the “TI ratio (H9C2/cancer cells)” value (Cervix HeLa cells)?
Answer: 46
